# Assay results published in paper PMC6325219, “Preclinical Characterization of NVR 3-778, a First-in-Class Capsid Assembly Modulator against Hepatitis B Virus” (Antimicrobial Agents and Chemotherapy, 2018).
# Where two headings read alike, the source gives them in different places.
# What was measured:
# β-actin mRNA = assay: Host β-actin mRNA in PHH during de novo infection study; format: cell-based, human; settings: 11 days, highest concentration tested 30 μM
# Description: Cryopreserved PHH (Life Technologies) were seeded at 40,000 cells/well 1 day before infection. The HBV inoculum, concentrated from the supernatants of HepG2.2.15 cells, was prepared at 200 genome equivalents/cell in PHH medium (DMEM containing 10% FBS and a supplement cocktail containing HEPES, L-proline, insulin epidermal growth factor, dexamethasone, and ascorbic acid-2-phosphate, as previously described) with 2% DMSO and 4% polyethylene glycol (PEG) 8000 (Sigma). Compounds were serially diluted in DMSO at 50-fold strength and added to PHH medium containing the HBV inoculum, prior to infecting the PHH. After overnight incubation, the infection mixtures were removed and the cells were replenished with PHH medium containing freshly diluted compounds. On day 5 and day 8 postinfection, the media containing the compounds were removed and the cells were replenished with PHH medium containing freshly diluted compounds. […] HBV DNA, HBsAg, and HBeAg were determined from the supernatants of infected PHH using bDNA assays (Affymetrix) and HBsAg or HBeAg chemiluminescence immunoassay kits (Autobio), as recommended by the manufacturers. Intracellular total HBV RNA mRNA and host mRNA levels were monitored by using the QuantiGene assays (Affymetrix) and probe sets that hybridized to the X region, which is common to all HBV transcripts, and the host β-actin mRNA, respectively.
# HBV GT F = assay: Transient-transfection antiviral study in HepG2 cells, GT F; format: cell-based; settings: Hepatitis B virus, HepG2, 72 h, read-out: EC50 (mean), HBV GT F
# Description: Cells were cotransfected with the HBV plasmids (100 ng/well) and a Gaussia expression plasmid (10 ng/well) (Thermo Scientific) using the Lipofectamine LTX Plus transfection reagent (Life Technologies). Transfection mixtures were removed after overnight incubation, and cells were treated with serially diluted NVR 3-778 at a final dimethyl sulfoxide (DMSO) concentration of 0.5%. After 3 days of incubation with the compound, the supernatants were collected and secreted Gaussia luciferase was measured using a Gaussia Flash luciferase assay kit (Thermo Scientific). […] Samples were diluted into lysis buffer (Affymetrix) containing 2.5 µg proteinase K (Affymetrix) at 50°C for 40 min. Intracellular encapsidated HBV DNA was denatured for 30 min at 25°C in 0.2 M NaOH (Sigma) and incubated with HBV DNA probes designed to hybridize to the minus-strand HBV DNA (Affymetrix). The denatured DNA was subsequently detected using a QuantiGene assay kit, according to the branched DNA (bDNA) assay recommended by the manufacturer (Affymetrix).
# [1] = 28-day twice-daily oral gavage pharmacokinetics in CD1 mice; format: in vivo; settings: for Cmax / half-life / AUC(0-t) / Tmax: CD1, mouse, plasma, po; for AUC(0-t): after second daily dose, read-out: AUC0–12; for Tmax: relative to second daily dose
# Description: Fed male and female CD1 mice (36/sex/group) were dosed twice a day (BID) by oral gavage with 50, 150, and 500 mg/kg of body weight/dose of NVR 3-778 for 28 days. At different time points after dosing, plasma was analyzed for NVR 3-778 concentration by liquid chromatography-tandem mass spectrometry (LC-MS/MS).
# In vivo pharmacokinetics studies were performed at Covance Laboratories (Madison, Wisconsin), accredited by the Association for Assessment and Accreditation of Laboratory Animal Care (AAALAC). All procedures in the protocols were in compliance with applicable animal welfare acts and were approved by the local Institutional Animal Care and Use Committee (IACUC). For the 28-day study in mice, male and female mice were 6 to 7 weeks old at the initiation of dosing. Environmental conditions, diet, and water were typical for pharmacokinetic and tolerability studies. NVR 3-778 was dosed in a vehicle of 0.5% (wt/vol) hydroxypropyl methylcellulose (Methocel E50 premium)--1% (wt/vol) polysorbate 80 (Tween 80) in reverse osmosis water. Blood samples were collected at 0.25, 0.5, 1, 3, 6, and 12 h after dosing on day 1 and on day 28 of the study into potassium (K2) EDTA. Plasma was harvested and stored at −80°C.
# [2] = Oral bioavailability and pharmacokinetics in beagle dogs; format: in vivo; settings: for AUC(0-inf): read-out: AUC0–inf (mean)
# Description: After a 7-day washout period, the same two dogs were administered NVR 3-778 by a single oral gavage of the same formulation at 1.5 mg/kg. Blood samples were collected at 0 (predose), 2 min (for the i.v. group only), 5 min, 15 min, and 0.5, 1, 3, 6, 9, and 24 h postdose. The concentration of NVR 3-778 in plasma samples was determined using LC-MS/MS methods.
# HBV = system: HBV; set-up: method as in doi:10.1016/S0168-8278(16)00175-6; settings: HBV-infected patients; cited from earlier work
# [3] = female, 50 mg/kg, day 1, 50 mg/kg/dose BID oral gavage, F
# [4] = female, 50 mg/kg, day 28, 50 mg/kg/dose BID oral gavage, F
# [5] = female, 150 mg/kg, day 1, 150 mg/kg/dose BID oral gavage, F
# [6] = female, 150 mg/kg, day 28, 150 mg/kg/dose BID oral gavage, F
# [7] = female, 500 mg/kg, day 1, 500 mg/kg/dose BID oral gavage, F
# [8] = female, 500 mg/kg, day 28, 500 mg/kg/dose BID oral gavage, F
# [9] = male, 50 mg/kg, day 1, 50 mg/kg/dose BID oral gavage, M
# [10] = male, 50 mg/kg, day 28, 50 mg/kg/dose BID oral gavage, M
# [11] = male, 150 mg/kg, day 1, 150 mg/kg/dose BID oral gavage, M
# [12] = male, 150 mg/kg, day 28, 150 mg/kg/dose BID oral gavage, M
# [13] = male, 500 mg/kg, day 1, 500 mg/kg/dose BID oral gavage, M
# [14] = male, 500 mg/kg, day 28, 500 mg/kg/dose BID oral gavage, M
# [15] = dog, plasma, iv, single i.v. 0.5 mg/kg, two male beagle dogs
# [16] = dog, plasma, single oral gavage 1.5 mg/kg, two male beagle dogs
smiles,measurement,setting,value
"Nc1ccn([C@@H]2CS[C@H](CO)O2)c(=O)n1 [LMV, lamivudine, reference compound]","CC50 (EC50), β-actin mRNA",β-actin mRNA,>30 µM
same,"CC90 (EC90 column), β-actin mRNA",β-actin mRNA,>30 µM
O=C(Nc1cc(F)c(F)c(F)c1)c1ccc(F)c(S(=O)(=O)N2CCC(O)CC2)c1 [NVR 3-778],EC50,HBV GT F,0.56 µM
same,Gender differences in NVR 3-778 exposure,"[1]; CD1 mice, Cmax and AUC",less than 2 fold
same,Cmax,"[1]; both sexes, 500 mg/kg, 28-day study, dosed orally at 500 mg/kg BID, 100 µM = 43.2 µg/ml, read-out: Mean Cmax (serum/plasma level reached in mice)",> 100 µM
same,half-life,[1]; [3],2.2 h
same,AUC(0-t),[1]; [3],60.1 µg·h/mL
same,Cmax,"[1]; female, 50 mg/kg, day 1, 50 mg/kg/dose BID oral gavage, F, read-out: Cmax",11700 ng/mL
same,Tmax,[1]; [3],0.5 h
same,AUC(0-t),[1]; [4],78.8 µg·h/mL
same,Cmax,"[1]; female, 50 mg/kg, day 28, 50 mg/kg/dose BID oral gavage, F, read-out: Cmax",11500 ng/mL
same,Tmax,[1]; [4],3 h
same,half-life,[1]; [5],4.35 h
same,AUC(0-t),[1]; [5],131 µg·h/mL
same,Cmax,"[1]; female, 150 mg/kg, day 1, 150 mg/kg/dose BID oral gavage, F, read-out: Cmax",22000 ng/mL
same,Tmax,[1]; [5],0.5 h
same,half-life,[1]; [6],2.48 h
same,AUC(0-t),[1]; [6],171 µg·h/mL
same,Cmax,"[1]; female, 150 mg/kg, day 28, 150 mg/kg/dose BID oral gavage, F, read-out: Cmax",26600 ng/mL
same,Tmax,[1]; [6],1 h
same,AUC(0-t),[1]; [7],315 µg·h/mL
same,Cmax,"[1]; female, 500 mg/kg, day 1, 500 mg/kg/dose BID oral gavage, F, read-out: Cmax",41400 ng/mL
same,Tmax,[1]; [7],0.5 h
same,AUC(0-t),[1]; [8],354 µg·h/mL
same,Cmax,"[1]; female, 500 mg/kg, day 28, 500 mg/kg/dose BID oral gavage, F, read-out: Cmax",40800 ng/mL
same,Tmax,[1]; [8],3 h
same,AUC(0-t),[1]; [9],70.4 µg·h/mL
same,Cmax,"[1]; male, 50 mg/kg, day 1, 50 mg/kg/dose BID oral gavage, M, read-out: Cmax",12700 ng/mL
same,Tmax,[1]; [9],1 h
same,AUC(0-t),[1]; [10],87.3 µg·h/mL
same,Cmax,"[1]; male, 50 mg/kg, day 28, 50 mg/kg/dose BID oral gavage, M, read-out: Cmax",11900 ng/mL
same,Tmax,[1]; [10],3 h
same,half-life,[1]; [11],5 h
same,AUC(0-t),[1]; [11],166 µg·h/mL
same,Cmax,"[1]; male, 150 mg/kg, day 1, 150 mg/kg/dose BID oral gavage, M, read-out: Cmax",25300 ng/mL
same,Tmax,[1]; [11],1 h
same,AUC(0-t),[1]; [12],157 µg·h/mL
same,Cmax,"[1]; male, 150 mg/kg, day 28, 150 mg/kg/dose BID oral gavage, M, read-out: Cmax",24200 ng/mL
same,Tmax,[1]; [12],1 h
same,AUC(0-t),[1]; [13],406 µg·h/mL
same,Cmax,"[1]; male, 500 mg/kg, day 1, 500 mg/kg/dose BID oral gavage, M, read-out: Cmax",43000 ng/mL
same,Tmax,[1]; [13],1 h
same,half-life,[1]; [14],3.15 h
same,AUC(0-t),[1]; [14],375 µg·h/mL
same,Cmax,"[1]; male, 500 mg/kg, day 28, 500 mg/kg/dose BID oral gavage, M, read-out: Cmax",43800 ng/mL
same,Tmax,[1]; [14],3 h
same,Circulating species in plasma,"[1]; mice, oral gavage",predominant circulating molecule
same,clearance,[2]; [15],6.1 mL/min/kg
same,AUC(0-inf),[2]; [15],1.38 µg·h/mL
same,half-life,"[2]; dog, plasma, iv, single i.v. 0.5 mg/kg, two male beagle dogs, read-out: Mean terminal half-life (converted)",4.1 h
same,Vd,"[2]; dog, plasma, iv, single i.v. 0.5 mg/kg, two male beagle dogs, read-out: Volume of distribution at steady state (Vss) (mean)",1.7 L/kg
same,Cmax,[2]; [16],560 ng/mL
same,AUC(0-inf),[2]; [16],3.5 µg·h/mL
same,Circulating species in plasma,"[2]; dogs, oral gavage",predominant circulating molecule
same,bioavailability,"[2]; male, dog, plasma, oral 1.5 mg/kg versus i.v. 0.5 mg/kg, beagle dogs",84.6%
same,"Antiviral effect, combination with pegIFN versus NVR 3-778 monotherapy",HBV,greatest antiviral effect
